Assay: RP, Waters ACQUITY UPLC BEH C18, 100 × 2.1 mm, 1.7 µm, 0.3 mL/min, estimated dead time 0.73 min; A: water + 0.1% formic acid, pH 3; B: methanol + 0.1% formic acid, pH 3; gradient (min/%B) 0/10 14/90 16/90 18/10
Conditions: stereoisomer not certain

Row | SMILES | LC retention time
1 | CS(=O)(=O)c1ccc(C(=O)C2C(=O)CCCC2=O)c([N+](=O)[O-])c1 [Mesotrione] | 5.53 min
2 | COCC(=O)N(c1c(C)cccc1C)C(C)C(=O)OC (centres undefined) [Metalaxyl] | 9.73 min
3 | Cc1nnc(-c2ccccc2)c(=O)n1N [Metamitron] | 4.51 min
4 | Cc1cccc(C)c1N(Cn1cccn1)C(=O)CCl [Metazachlor] | 8.95 min
5 | CC1(C)CCC(Cc2ccc(Cl)cc2)C1(O)Cn1cncn1 (centres undefined) [Metconazole] | 11.9 min
6 | COC(=O)C(C)=COP(=S)(OC)OC [Methacrifos] | 9.37 min
7 | CCC(=O)C(CC(C)N(C)C)(c1ccccc1)c1ccccc1 (centres undefined) [Methadone] | 10.4 min
8 | CNC(C)C(=O)c1ccccc1 (centres undefined) [Methcathinone] | 2.95 min
9 | COc1nn(CSP(=S)(OC)OC)c(=O)s1 [Methidathion] | 9.91 min
10 | CNC(=O)Oc1cc(C)c(S(C)(=O)=O)c(C)c1 [Methiocarb sulfone] | 4.46 min
11 | CNC(=O)Oc1cc(C)c(S(C)=O)c(C)c1 (centres undefined) [Methiocarb sulfoxide] | 4.6 min
12 | CNC(=O)Oc1cc(C)c(SC)c(C)c1 [Methiocarb] | 8.89 min
13 | CNC(=O)ON=C(C)SC [Methomyl] | 3.09 min
14 | CON(C)C(=O)Nc1ccc(Br)cc1 [Metobromuron] | 8.53 min
15 | CCc1cccc(C)c1N(C(=O)CCl)C(C)COC (centres undefined) [Metolachlor] | 11.7 min
16 | COCCc1ccc(OCC(O)CNC(C)C)cc1 (centres undefined) [Metoprolol] | 5.31 min
17 | COc1cc(OC)n2nc(S(=O)(=O)Nc3c(Cl)ccc(C)c3Cl)nc2n1 [Metosulam] | 7.54 min
18 | COc1ccc(NC(=O)N(C)C)cc1Cl [Metoxuron] | 6.3 min
19 | CSc1nnc(C(C)(C)C)c(=O)n1N [Metribuzin] | 7.06 min
20 | Cc1ncc([N+](=O)[O-])n1CCO [Metronidazole (MNZ)] | 5.38 min
21 | COC(=O)c1ccccc1S(=O)(=O)NC(=O)Nc1nc(C)nc(OC)n1 [Metsulfuron methyl] | 5 min
22 | COC(=O)C=C(C)OP(=O)(OC)OC [Mevinphos trans] | 4.95 min
23 | CCC1(C2OC(C3OC(O)(CO)C(C)CC3C)CC2C)CCC(C2(C)CCC3(CC(O)C(C)C(C(C)C(OC)C(C)C(=O)O)O3)O2)O1 (centres undefined) [Monensin] | 15.3 min

Row | SMILES | LC retention time
24 | CNC(=O)C=C(C)OP(=O)(OC)OC [Monocrotophos] | 3.57 min
25 | CON(C)C(=O)Nc1ccc(Cl)cc1 [Monolinuron] | 8.07 min
26 | CN1CCC23c4c5ccc(O)c4OC2C(O)C=CC3C1C5 (centres undefined) [Morphine] | 2.86 min
27 | CON=C1CC2(CC3CC(CC=C(C)CC(C)C=CC=C4COC5C(O)C(C)=CC(C(=O)O3)C45O)O2)OC(C(C)=CC(C)C)C1C (centres undefined) [Moxidectin] | 15.8 min
28 | COc1c(N2CC3CCCNC3C2)c(F)cc2c(=O)c(C(=O)O)cn(C3CC3)c12 (centres undefined) [Moxifloxacin] | 5.23 min
29 | CCCCC(C#N)(Cn1cncn1)c1ccc(Cl)cc1 (centres undefined) [Myclobutanil] | 10.6 min
30 | CCn1cc(C(=O)O)c(=O)c2ccc(C)nc21 [Nalidixic acid] | 7.99 min
31 | CC12CCC3C4CCC(=O)C=C4CCC3C1CCC2O (stereo not drawn) [Nandrolone. beta-nortestosterone] | 10.6 min
32 | CCN(CC)C(=O)C(C)Oc1cccc2ccccc12 (centres undefined) [Napropamide] | 11 min
33 | O=C(O)c1ccccc1C(=O)Nc1cccc2ccccc12 [Naptalam] | 6.59 min
34 | CCC(C(=O)O)C1OC(C(C)C(O)C(C)C(=O)C(CC)C2OC3(C=CC(O)C4(CCC(C)(C5CCC(O)(CC)C(C)O5)O4)O3)C(C)CC2C)C(C)CC1C (centres undefined) [Narasin] | 16.5 min
35 | COc1cc(OC)nc(NC(=O)NS(=O)(=O)c2ncccc2C(=O)N(C)C)n1 [Nicosulfuron] | 5.39 min
36 | CN1CCCC1c1cccnc1 (centres undefined) [Nicotine] | 1.12 min
37 | O=C1CN(N=Cc2ccc([N+](=O)[O-])o2)C(=O)N1 [Nitrofurantoin] | 2.83 min
38 | NC(=O)NN=Cc1ccc([N+](=O)[O-])o1 [Nitrofurazone] | 2.99 min
39 | O=C(OC1CC2CCC(N2)C1C(=O)O)c1ccccc1 (centres undefined) [Norbenzoylecgonine] | 5.1 min
40 | COC(=O)C1C2CCC(CC1OC(=O)c1ccccc1)N2 (centres undefined) [Norcocaine] | 6.29 min
41 | O=C1CN=C(c2ccccc2)c2cc(Cl)ccc2N1 [Nordiazepam] | 10.5 min
42 | CCn1cc(C(=O)O)c(=O)c2cc(F)c(N3CCNCC3)cc21 [Norfloxacin] | 4.27 min
43 | CNc1cnn(-c2cccc(C(F)(F)F)c2)c(=O)c1Cl [Norflurazon] | 9.22 min
44 | O=C(NC(=O)c1c(F)cccc1F)Nc1ccc(OC(F)(F)C(F)OC(F)(F)F)c(Cl)c1 (centres undefined) [Novaluron] | 12.6 min
45 | OC(c1ccc(F)cc1)(c1cncnc1)c1ccccc1Cl (centres undefined) [Nuarimol (Trimidal)] | 10 min
46 | CCCCCc1cc(O)c2c(c1)OC(C)(C)C1CC(O)C(C)=CC21 (centres undefined) [OH-THC] | 13.9 min

Row | SMILES | LC retention time
47 | CC1Cc2c(Cl)cc(C(=O)NC(Cc3ccccc3)C(=O)O)c(O)c2C(=O)O1 (centres undefined) [Ochratoxin A] | 9.15 min
48 | CC1Cc2c(Cl)cc(C(=O)O)c(O)c2C(=O)O1 (stereo not drawn) [Ochratoxin Alpha] | 11.2 min
49 | CCCCCCCCn1sccc1=O [Octhilinone (2-Octyl-4-isothiazoline-3-one)] | 11 min
50 | CC1COc2c(N3CCN(C)CC3)c(F)cc3c(=O)c(C(=O)O)cn1c23 (centres undefined) [Ofloxacin] | 4.08 min
51 | Cc1cccc(C)c1N(C(=O)CCl)C1CCOC1=O (centres undefined) [Ofurace] | 7.69 min
52 | Cc1cc2c(s1)Nc1ccccc1N=C2N1CCN(C)CC1 [Olanzapine] | 3.3 min
53 | COc1ccc2nc(S(=O)Cc3ncc(C)c(OC)c3C)[nH]c2c1 (centres undefined) [Omeprazole] | 7.14 min
54 | CNC(=O)CSP(=O)(OC)OC [Omethoate] | 2.5 min
55 | CCN(CC)C(=O)SCc1ccccc1Cl [Orbencarb] | 11.9 min
56 | CCCN(CCC)c1c([N+](=O)[O-])cc(S(N)(=O)=O)cc1[N+](=O)[O-] [Oryzalin] | 11.1 min
57 | CC(C)Oc1cc(-n2nc(C(C)(C)C)oc2=O)c(Cl)cc1Cl [Oxadiazon] | 13 min
58 | COCC(=O)N(c1c(C)cccc1C)N1CCOC1=O [Oxadixyl] | 6.71 min
59 | CNC(=O)ON=C(SC)C(=O)N(C)C [Oxamyl] | 2.84 min
60 | Cc1cc(C)nc(NC(=O)NS(=O)(=O)c2ccccc2C(=O)OC2COC2)n1 [Oxasulfuron] | 6.3 min
61 | COC(=O)Nc1nc2ccc(S(=O)c3ccccc3)cc2[nH]1 (centres undefined) [Oxfendazole] | 7.31 min
62 | CCn1cc(C(=O)O)c(=O)c2cc3c(cc21)OCO3 [Oxolinic acid] | 6.58 min
63 | CC1=C(C(=O)Nc2ccccc2)S(=O)(=O)CCO1 [Oxycarboxin] | 5.41 min
64 | CCS(=O)CCSP(=O)(OC)OC (centres undefined) [Oxydemeton-methyl] | 3.15 min
65 | CCOc1cc(Oc2ccc(C(F)(F)F)cc2Cl)ccc1[N+](=O)[O-] [Oxyfluorfen] | 13.8 min
66 | CCCCC1C(=O)N(c2ccccc2)N(c2ccc(O)cc2)C1=O (centres undefined) [Oxyphenylbutazone] | 9.97 min
67 | CN(C)C1C(=O)C(C(N)=O)=C(O)C2(O)C(=O)C3=C(O)c4c(O)cccc4C(C)(O)C3C(O)C12 (centres undefined) [Oxytetracycline] | 3.94 min
68 | CC(C)(C)C(O)C(Cc1ccc(Cl)cc1)n1cncn1 (centres undefined) [Paclobutrazol] | 10.8 min
69 | COc1ccnc(CS(=O)c2nc3ccc(OC(F)F)cc3[nH]2)c1OC (centres undefined) [Pantoprazol] | 7.67 min

Row | SMILES | LC retention time
70 | COP(=S)(OC)Oc1ccc([N+](=O)[O-])cc1 [Parathion-methyl] | 9.6 min
71 | CCOP(=S)(OCC)Oc1ccc([N+](=O)[O-])cc1 [Parathion] | 11.3 min
72 | Fc1ccc(C2CCNCC2COc2ccc3c(c2)OCO3)cc1 (centres undefined) [Paroxetine] | 9.22 min
73 | CCCCN(CC)C(=O)SCCC [Pebulate (Tillam)] | 12.1 min
74 | CCn1cc(C(=O)O)c(=O)c2cc(F)c(N3CCN(C)CC3)cc21 [Pefloxacin] | 4.09 min
75 | CCCC(Cn1cncn1)c1ccc(Cl)cc1Cl (centres undefined) [Penconazole] | 11.6 min
76 | O=C(Nc1ccccc1)N(Cc1ccc(Cl)cc1)C1CCCC1 [Pencycuron] | 12.2 min
77 | CCC(CC)Nc1c([N+](=O)[O-])cc(C)c(C)c1[N+](=O)[O-] [Pendimethalin] | 14.2 min
78 | C=C(C)C1(O)OC(=O)C=C1OC (centres undefined) [Penicillic acid] | 3.78 min
79 | CC1(C)SC2C(NC(=O)Cc3ccccc3)C(=O)N2C1C(=O)O (centres undefined) [Penicillin G] | 8.55 min
80 | COC(=O)Nc1cccc(OC(=O)Nc2cccc(C)c2)c1 [Phenmedipham] | 9.52 min
81 | CCCCC1C(=O)N(c2ccccc2)N(c2ccccc2)C1=O [Phenylbutazone] | 11.6 min
82 | CCOP(=S)(OCC)SCS(=O)(=O)CC [Phorate sulfone] | 8.76 min
83 | CCOP(=S)(OCC)SCn1c(=O)oc2cc(Cl)ccc21 [Phosalone] | 12 min
84 | COP(=S)(OC)SCN1C(=O)c2ccccc2C1=O [Phosmet] | 9.52 min
85 | CCOP(=S)(OCC)ON=C(C#N)c1ccccc1 [Phoxim] | 11.9 min
86 | CCn1cc(C(=O)O)c(=O)c2cnc(N3CCNCC3)nc21 [Pipemidic acid] | 3.48 min
87 | CCCOP(=S)(OCCC)SCC(=O)N1CCCCC1C (centres undefined) [Piperophos] | 12.3 min
88 | Cc1nc(N(C)C)nc(OC(=O)N(C)C)c1C [Pirimicarb] | 5.67 min
89 | CCOP(=S)(OCC)Oc1cc(C)nc(N(CC)CC)n1 [Pirimiphos-ethyl] | 13 min

— the RepoRT retention time repository (doi:10.1016/j.scitotenv.2015.08.078)
